The subject of the experiment is TNFα secretion from PMA/ionomycin stimulated white blood cells from human buffy coat. The experiment can be described thus: TNFα secretion assay, PMA/ionomycin stimulation.

Read-outs that look alike come from different tables or passages of the source.

Procedure: Various concentrations of each test compound were added at the time of stimulation. […] After the plate was washed with 0.1% Tween 20/PBS, an HRP-luminescent substrate was added to each well and light intensity measured using a LJL Analyst plate luminometer.

`C[C@]12CCC(=O)C=C1CC[C@@H]1[C@@H]2[C@@H](O)C[C@@]2(C)[C@H]1CC[C@]2(O)C(=O)CO` [Hydrocortisone, hydrocortisone]: the inhibition at […] was -1.79% (read-out: inhibition of TNFα secretion, Hydrocortisone 21 nM, Desipramine nM: 0, 50, 200, 799, 3197, 13000); -4.17% (read-out: inhibition of TNFα secretion, Hydrocortisone 21 nM, Imipramine nM: 0, 99, 394, 1578, 6311, 25000); 4.44% (read-out: inhibition of TNFα secretion, Hydrocortisone 21 nM, Nortriptyline nM: 0, 52, 208, 834, 3336, 13000); 2.86% (read-out: inhibition of TNFα secretion, Hydrocortisone 21 nM, Protriptyline nM: 0, 52, 208, 834, 3336, 13000); 9.01% (read-out: inhibition of TNFα secretion, Hydrocortisone 83 nM, Desipramine nM: 0, 50, 200, 799, 3197, 13000); 5.91% (read-out: inhibition of TNFα secretion, Hydrocortisone 83 nM, Imipramine nM: 0, 99, 394, 1578, 6311, 25000). For the same compound, the inhibition at […] is, setting by setting: (read-out: inhibition of TNFα secretion, Hydrocortisone 83 nM, Nortriptyline nM: 0, 52, 208, 834, 3336, 13000) 13.6%; (read-out: inhibition of TNFα secretion, Hydrocortisone 83 nM, Protriptyline nM: 0, 52, 208, 834, 3336, 13000) 13.6%; (read-out: percent inhibition of TNFα secretion, Hydrocortisone 21 nM, Amitriptyline nM: 0, 50, 199, 796, 3186, 13000) -2.95%; (read-out: percent inhibition of TNFα secretion, Hydrocortisone 21 nM, Amoxapine nM: 0, 12, 50, 199, 797, 3187) 1.78%; (read-out: percent inhibition of TNFα secretion, Hydrocortisone 21 nM, Clomipramine nM: 0, 45, 178, 712, 2848, 11000) -0.248%; (read-out: percent inhibition of TNFα secretion, Hydrocortisone 83 nM, Amitriptyline nM: 0, 50, 199, 796, 3186, 13000) 5.95%. Besides, the inhibition at […] is, setting by setting: (read-out: percent inhibition of TNFα secretion, Hydrocortisone 83 nM, Amoxapine nM: 0, 12, 50, 199, 797, 3187) 11.4%; (read-out: percent inhibition of TNFα secretion, Hydrocortisone 83 nM, Clomipramine nM: 0, 45, 178, 712, 2848, 11000) 9.9%. The inhibition at 1.324 µM reads like this: (read-out: inhibition of TNFα secretion, Hydrocortisone 1324 nM, Desipramine nM: 0, 50, 200, 799, 3197, 13000) 34.4%; (read-out: inhibition of TNFα secretion, Hydrocortisone 1324 nM, Imipramine nM: 0, 99, 394, 1578, 6311, 25000) 30.3%; (read-out: inhibition of TNFα secretion, Hydrocortisone 1324 nM, Nortriptyline nM: 0, 52, 208, 834, 3336, 13000) 35.7%; (read-out: inhibition of TNFα secretion, Hydrocortisone 1324 nM, Protriptyline nM: 0, 52, 208, 834, 3336, 13000) 36.8%; (read-out: percent inhibition of TNFα secretion, Hydrocortisone 1324 nM, Amitriptyline nM: 0, 50, 199, 796, 3186, 13000) 32.2%; (read-out: percent inhibition of TNFα secretion, Hydrocortisone 1324 nM, Amoxapine nM: 0, 12, 50, 199, 797, 3187) 31.6%. Further, the inhibition at 1.324 µM (read-out: percent inhibition of TNFα secretion, Hydrocortisone 1324 nM, Clomipramine nM: 0, 45, 178, 712, 2848, 11000) came to 33%. In addition, the inhibition at 5.297 µM (read-out: inhibition of TNFα secretion, Hydrocortisone 5297 nM, Desipramine nM: 0, 50, 200, 799, 3197, 13000) turned out to be 38.6%; the inhibition at 5.297 µM (read-out: inhibition of TNFα secretion, Hydrocortisone 5297 nM, Imipramine nM: 0, 99, 394, 1578, 6311, 25000) worked out at 33.8%; the inhibition at 5.297 µM (read-out: inhibition of TNFα secretion, Hydrocortisone 5297 nM, Nortriptyline nM: 0, 52, 208, 834, 3336, 13000) is 36.5%; the inhibition at 5.297 µM (read-out: inhibition of TNFα secretion, Hydrocortisone 5297 nM, Protriptyline nM: 0, 52, 208, 834, 3336, 13000) turned out to be 38.2%; the inhibition at 5.297 µM (read-out: percent inhibition of TNFα secretion, Hydrocortisone 5297 nM, Amitriptyline nM: 0, 50, 199, 796, 3186, 13000) turned out to be 36.9%; the inhibition at 5.297 µM (read-out: percent inhibition of TNFα secretion, Hydrocortisone 5297 nM, Amoxapine nM: 0, 12, 50, 199, 797, 3187) worked out at 31.9%. In addition, the inhibition at 5.297 µM (read-out: percent inhibition of TNFα secretion, Hydrocortisone 5297 nM, Clomipramine nM: 0, 45, 178, 712, 2848, 11000) is 37.1%.

With `C[C@H]1C[C@H]2[C@@H]3CCC4=CC(=O)C=C[C@]4(C)[C@@]3(F)[C@@H](O)C[C@]2(C)[C@@]1(O)C(=O)CO` [Betamethasone], the inhibition at […] is, setting by setting: (read-out: inhibition of TNFα secretion, Betamethasone 38 nM, Imipramine nM: 0, 99, 394, 1578, 6311, 25000) 35.8%; (read-out: inhibition of TNFα secretion, Betamethasone 38 nM, Nortriptyline nM: 0, 52, 208, 834, 3336, 13000) 9.93%; (read-out: percent inhibition of TNFα secretion, Betamethasone 38 nM, Amoxapine nM: 0, 12, 50, 199, 797, 3187) 26.3%; (read-out: percent inhibition of TNFα secretion, Betamethasone 38 nM, Clomipramine nM: 0, 45, 178, 712, 2848, 11000) 36%; (read-out: percent inhibition of TNFα secretion, Betamethasone 38 nM, Desipramine nM: 0, 50, 200, 799, 3197, 13000) 17.3%. The inhibition at 2.434 µM (read-out: inhibition of TNFα secretion, Betamethasone 2434 nM, Nortriptyline nM: 0, 52, 208, 834, 3336, 13000) is 38.9% and the inhibition at 2.434 µM (read-out: percent inhibition of TNFα secretion, Betamethasone 2434 nM, Desipramine nM: 0, 50, 200, 799, 3197, 13000) was 48.9%.

As for `C[C@]12C=CC(=O)C=C1CC[C@H]1[C@@H]3C[C@@H](O)[C@](O)(C(=O)CO)[C@@]3(C)C[C@H](O)[C@@]12F` [Triamcinolone, triamcinolone], the inhibition at […] turned out to be 16% (read-out: inhibition of TNFα secretion, Triamcinolone 38 nM, Desipramine nM: 0, 50, 200, 799, 3197, 13000); 16.1% (read-out: inhibition of TNFα secretion, Triamcinolone 38 nM, Imipramine nM: 0, 99, 394, 1578, 6311, 25000); 7.21% (read-out: inhibition of TNFα secretion, Triamcinolone 38 nM, Nortriptyline nM: 0, 52, 208, 834, 3336, 13000); 10.8% (read-out: percent inhibition of TNFα secretion, Triamcinolone 38 nM, Amitriptyline nM: 0, 50, 199, 796, 3186, 13000); 3.52% (read-out: percent inhibition of TNFα secretion, Triamcinolone 38 nM, Amoxapine nM: 0, 12, 50, 199, 797, 3187); 12.5% (read-out: percent inhibition of TNFα secretion, Triamcinolone 38 nM, Clomipramine nM: 0, 45, 178, 712, 2848, 11000). The inhibition at 2.434 µM runs as follows: (read-out: inhibition of TNFα secretion, Triamcinolone 2434 nM, Desipramine nM: 0, 50, 200, 799, 3197, 13000) 47.1%; (read-out: inhibition of TNFα secretion, Triamcinolone 2434 nM, Imipramine nM: 0, 99, 394, 1578, 6311, 25000) 47.2%; (read-out: inhibition of TNFα secretion, Triamcinolone 2434 nM, Nortriptyline nM: 0, 52, 208, 834, 3336, 13000) 33.7%; (read-out: inhibition of TNFα secretion, Triamcinolone 2434 nM, Protriptyline nM: 0, 52, 208, 834, 3336, 13000) 48.5%; (read-out: percent inhibition of TNFα secretion, Triamcinolone 2434 nM, Amitriptyline nM: 0, 50, 199, 796, 3186, 13000) 43.8%; (read-out: percent inhibition of TNFα secretion, Triamcinolone 2434 nM, Amoxapine nM: 0, 12, 50, 199, 797, 3187) 36.1%. Under “read-out: percent inhibition of TNFα secretion, Triamcinolone 2434 nM, Clomipramine nM: 0, 45, 178, 712, 2848, 11000”, the inhibition at 2.434 µM came to 46.9%.

For `C[C@@H]1C[C@H]2[C@@H]3CCC4=CC(=O)C=C[C@]4(C)[C@@]3(F)[C@@H](O)C[C@]2(C)[C@@]1(O)C(=O)CO` [Dexamethasone, dexamethasone], the inhibition at […] came to 31.3% (read-out: inhibition of TNFα secretion, Dexamethasone 38 nM, Desipramine nM: 0, 50, 200, 799, 3197, 13000); 30% (read-out: inhibition of TNFα secretion, Dexamethasone 38 nM, Imipramine nM: 0, 99, 394, 1578, 6311, 25000); 31% (read-out: inhibition of TNFα secretion, Dexamethasone 38 nM, Nortriptyline nM: 0, 52, 208, 834, 3336, 13000); 31.1% (read-out: percent inhibition of TNFα secretion, Dexamethasone 38 nM, Amitriptyline nM: 0, 50, 199, 796, 3186, 13000); 32% (read-out: percent inhibition of TNFα secretion, Dexamethasone 38 nM, Amoxapine nM: 0, 12, 50, 199, 797, 3187); 35.6% (read-out: percent inhibition of TNFα secretion, Dexamethasone 38 nM, Clomipramine nM: 0, 45, 178, 712, 2848, 11000).

In the case of `CC(=O)OCC(=O)[C@@]1(OC(C)=O)[C@@H](C)C[C@H]2[C@@H]3C[C@H](F)C4=CC(=O)C=C[C@]4(C)[C@@]3(F)[C@@H](O)C[C@@]21C` [Diflorasone Diacetate], the inhibition at 0.03 µM (read-out: inhibition of TNFα secretion, Diflorasone Diacetate 30 nM, Desipramine nM: 0, 50, 200, 799, 3197, 13000) is 25.4%; the inhibition at 0.03 µM (read-out: inhibition of TNFα secretion, Diflorasone Diacetate 30 nM, Imipramine nM: 0, 99, 394, 1578, 6311, 25000) was determined as 29.6%; the inhibition at 0.03 µM (read-out: inhibition of TNFα secretion, Diflorasone Diacetate 30 nM, Protriptyline nM: 0, 52, 208, 834, 3336, 13000) amounted to 28.2%; the inhibition at 0.03 µM (read-out: percent inhibition of TNFα secretion, Diflorasone Diacetate 30 nM, Amitriptyline nM: 0, 50, 199, 796, 3186, 13000) stood at 26.1%. For the same compound, the inhibition at 1.941 µM reads like this: (read-out: inhibition of TNFα secretion, Diflorasone Diacetate 1941 nM, Desipramine nM: 0, 50, 200, 799, 3197, 13000) 46.9%; (read-out: inhibition of TNFα secretion, Diflorasone Diacetate 1941 nM, Imipramine nM: 0, 99, 394, 1578, 6311, 25000) 45.8%; (read-out: inhibition of TNFα secretion, Diflorasone Diacetate 1941 nM, Protriptyline nM: 0, 52, 208, 834, 3336, 13000) 45.3%; (read-out: percent inhibition of TNFα secretion, Diflorasone Diacetate 1941 nM, Amitriptyline nM: 0, 50, 199, 796, 3186, 13000) 45.2%. Further, the inhibition at […] (read-out: percent inhibition of TNFα secretion, Diflorasone Diacetate 38 nM, Clomipramine nM by grid row: r5 0, r6 12, r7 50, r8 199, r9 797, r10 3187) was determined as 43.2%.

One may read the inhibition as the relative decrease from the control value, in per cent.
